Measured values as given in patent publication US9695151B2, “3,4-dihydro-2H-isoquinoline-1-one and 2,3-dihydro-isoindol-1-one compounds” (Hoffmann-La Roche Inc., priority 2013, dated 2017).

Columns and labels:
CYP11B2 [1] = target: T1, CYP11B2 (Homo sapiens (Human), UniProt P19099); conditions: patients with primary aldosteronism, oral; cited from earlier work
[2] = test system: rat model of chronic kidney disease; conditions: cited from earlier work; for cardiac and aortic medial hypertrophy / renal effects (albuminuria, azotemia, renovascular hypertrophy, glomerular injury, PAI-1 and osteopontin mRNA, tubulointerstitial fibrosis): angiotensin II and high salt treatment; for angiotensin II and salt-stimulated PAI-1 mRNA expression: aorta and heart
[3] = test system: rats with experimental heart failure; conditions: rat, in vivo; cited from earlier work
CYP11B2 [4] = target: T1, CYP11B2; assay: G-402 cellular enzyme assay, human CYP11B2 (aldosterone release); type: cell-based; conditions: G-402 cells, 1 μM Deoxycorticosterone
Excerpt: (§1) Herein we identified the use of the G-402 cell line as a host cell to ectopically express (transiently or stably) enzymes of the CYP11 family. Specifically we developed stable G-402 cells expressing ectopically human CYP11B1, human CYP11B2, human CYP11A1, cynmolgus CYP11B1 or cynomolgus CYP11B2 enzyme activity. Importantly the identified cell line G-402 expresses co-factors (adrenodoxin and adrenodoxin reductase) important for the activity of the CYP11 family and no relevant enzyme activity of the CYP11 family (in comparison to H295R cells) was detected in these cells. Therefore the G-402 cell line is uniquely suited as a host cell for the ectopic expression of enzymes from the CYP11 family.
(§2) G-402 cells can be obtained from ATCC (CRL-1440) and were originally derived from a renal leiomyoblastoma.
(§3) The expression plasmids contains the ORF for either human/cyno CYP11B1 or CYP11B2 under the control of a suitable promoter (CMV-promoter) and a suitable resistance marker (neomycin). Using standard techniques the expression plasmid is transfected into G-402 cells and these cells are then selected for expressing the given resistance markers. Individual cell-clones are then selected and assessed for displaying the desired enzymatic activity using 11-Deoxycorticosterone (Cyp11B2) or 11-Deoxycortisol (Cyp11B1) as a substrate.
(§4) G-402 cells expressing CYP11 constructs were established as described above and maintained in McCoy's 5a Medium Modified, ATCC Catalog No. 30-2007 containing 10% FCS and 400 μg/ml G418 (Geneticin) at 37° C. under an atmosphere of 5% CO2/95% air. Cellular enzyme assays were performed in DMEM/F12 medium containing 2.5% charcoal treated FCS and appropriate concentration of substrate (0.3-10 uM 11-Deoxycorticosterone, 11-Deoxycortisol or Corticosterone). For assaying enzymatic activity, cells were plated onto 96 well plates and incubated for 16 h. An aliquot of the supernatant is then transferred and analyzed for the concentration of the expected product (Aldosterone for CYP11B2; Cortisol for CYP11B1). The concentrations of these steroids can be determined using HTRF assays from CisBio analyzing either Aldosterone or Cortisol.
(§5) Inhibition of the release of produced steroids can be used as a measure of the respective enzyme inhibition by test compounds added during the cellular enzyme assay. The dose dependent inhibition of enzymatic activity by a compound is calculated by means of plotting added inhibitor concentrations (x-axes) vs. measured steroid/product level (y-axes). The inhibition is then calculated by fitting the following 4-parameter sigmoidal function (Morgan-Mercer-Flodin (MMF) model) to the raw data points using the least squares method:
(§6) [formula] wherein, A is the maximum y value, B is the EC50 factor determined using XLFit, C is the minimum y value and D is the slope value.
(§7) EC50 values for compounds claimed herein were tested with the G402-based assay system described. Cyp11B2 enzyme activity was tested in presence of 1 μM Deoxycorticosterone and variable amounts of inhibitors; Cyp11B1 enzyme activity was tested in presence of 1 μM Deoxycortisol and variable amounts of inhibitors.

human CYP11B1 = human CYP11B1 (Homo sapiens (Human), UniProt P15538); assay: G-402 cellular enzyme assay, human CYP11B1 (cortisol release); type: cell-based; conditions: G-402 cells, 1 μM Deoxycortisol
Chain of human CYP11B1 (P15538 25-503): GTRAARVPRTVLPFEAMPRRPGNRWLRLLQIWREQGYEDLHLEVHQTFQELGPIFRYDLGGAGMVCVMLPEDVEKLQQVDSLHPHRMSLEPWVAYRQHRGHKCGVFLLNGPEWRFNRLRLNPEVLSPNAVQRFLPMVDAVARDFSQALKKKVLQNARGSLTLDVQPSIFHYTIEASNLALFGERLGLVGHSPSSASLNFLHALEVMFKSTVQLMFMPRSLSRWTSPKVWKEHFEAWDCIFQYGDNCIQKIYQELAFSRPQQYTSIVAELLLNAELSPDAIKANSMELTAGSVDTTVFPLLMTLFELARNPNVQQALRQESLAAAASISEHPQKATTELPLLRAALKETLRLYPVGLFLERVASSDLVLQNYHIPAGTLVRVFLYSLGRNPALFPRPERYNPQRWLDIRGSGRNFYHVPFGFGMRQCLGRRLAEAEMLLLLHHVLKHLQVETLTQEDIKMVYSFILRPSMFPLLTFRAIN
Excerpt: as §1, §2, §3, §4, §5, §6, §7

T1 sequence (P19099 25-503): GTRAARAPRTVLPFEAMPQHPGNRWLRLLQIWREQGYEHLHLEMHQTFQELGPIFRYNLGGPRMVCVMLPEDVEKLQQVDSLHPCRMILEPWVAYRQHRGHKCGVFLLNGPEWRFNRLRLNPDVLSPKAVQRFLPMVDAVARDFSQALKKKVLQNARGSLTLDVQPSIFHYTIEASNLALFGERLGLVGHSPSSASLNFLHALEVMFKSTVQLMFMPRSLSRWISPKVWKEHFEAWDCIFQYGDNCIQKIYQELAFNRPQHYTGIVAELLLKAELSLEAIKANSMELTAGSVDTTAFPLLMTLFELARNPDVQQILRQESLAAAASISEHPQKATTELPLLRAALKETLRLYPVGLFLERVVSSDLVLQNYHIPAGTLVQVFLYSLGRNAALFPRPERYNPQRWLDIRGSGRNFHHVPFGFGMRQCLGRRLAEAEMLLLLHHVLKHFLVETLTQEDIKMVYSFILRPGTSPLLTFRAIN

| EC50 (CYP11B2 [4]) | EC50 (human CYP11B1) | Structure (SMILES) | other results |
| --- | --- | --- | --- |
| – | – | N#Cc1ccc([C@H]2CCc3cncn32)c(F)c1 [LCI699] | blood pressure (CYP11B2 [1]): mildly decreased; circulating aldosterone levels (CYP11B2 [1]): significantly lower; hypokalemia (CYP11B2 [1]): corrected; selectivity (effects on the glucocorticoid axis) (CYP11B2 [1]): poor selectivity |
| – | – | N#Cc1ccc([C@H]2CCCc3cncn32)cc1 [FAD286] | cardiac and aortic medial hypertrophy [2]: attenuated; renal effects (albuminuria, azotemia, renovascular hypertrophy, glomerular injury, PAI-1 and osteopontin mRNA, tubulointerstitial fibrosis) [2]: prevented; angiotensin II and salt-stimulated PAI-1 mRNA expression [2]: not; plasma aldosterone ([2]; following 4 weeks of treatment): reduced; blood pressure and cardiovascular function and structure [3]: improved; kidney function and morphology [3]: improve |
| 44 nM | 15400 nM | CCC(=O)N1CC2(CC(Nc3cncc(N4C(=O)c5ccc(Cl)cc5C4(C)C)c3)C2)C1 [Example 36, 5-Chloro-3,3-dimethyl-2-[5-[(2-propanoyl-2-azaspiro[3.3]heptan-6-yl)amino]pyridin-3-yl]isoindol-1-one] | – |
| 10 nM | 2560 nM | CCC(=O)N1CC(Nc2cncc(N3C(=O)c4ccc(Cl)cc4C3(C)C)c2)C1 [Example 9, 5-Chloro-3,3-dimethyl-2-[5-[(1-propanoylazetidin-3-yl)amino]pyridin-3-yl]isoindol-1-one] | – |
| 0.8 nM | 0.4 nM | CCS(=O)(=O)N1CCC(N(C)c2cncc(N3C(=O)c4ccc(Cl)cc4C3(C)C)c2)CC1 [Example 20, 5-Chloro-2-[5-[(1-ethylsulfonylpiperidin-4-yl)-methylamino]pyridin-3-yl]-3,3-dimethylisoindol-1-one] | – |
| – | – | CC(=O)S[C@@H]1CC2=CC(=O)CC[C@]2(C)[C@H]2CC[C@@]3(C)[C@@H](CC[C@@]34CCC(=O)O4)[C@H]12 [spironolactone] | cardiac and aortic medial hypertrophy [2]: attenuated; renal effects (albuminuria, azotemia, renovascular hypertrophy, glomerular injury, PAI-1 and osteopontin mRNA, tubulointerstitial fibrosis) [2]: prevented; angiotensin II and salt-stimulated PAI-1 mRNA expression [2]: enhanced; aldosterone ([2]; at 4 and 8 weeks of treatment): increased |
| 0.5 nM | 37 nM | CC(C)S(=O)(=O)N1CC(N(C)c2cncc(N3C(=O)c4ccc(Cl)cc4C3(C)C)c2)C1 [Example 13, 5-Chloro-3,3-dimethyl-2-[5-[methyl-(1-propan-2-ylsulfonylazetidin-3-yl)amino]pyridin-3-yl]isoindol-1-one] | – |
| 954 nM | > 30000 nM | CCC(=O)N1CC(Nc2cncc(N3Cc4cc(Cl)ccc4C3=O)c2)C1 [Example 28, 5-Chloro-2-[5-[(1-propanoylazetidin-3-yl)amino]pyridin-3-yl]-3H-isoindol-1-one] | – |
| 13 nM | 4570 nM | CCS(=O)(=O)N1CCC(Nc2cncc(N3C(=O)c4ccc(C#N)cc4C3(C)C)c2)CC1 [Example 43, 2-[5-[(1-Ethylsulfonyl-4-piperidyl)amino]-3-pyridyl]-3,3-dimethyl-1-oxo-isoindoline-5-carbonitrile] | – |
| 1 nM | 129 nM | CCCS(=O)(=O)N1CCC(N(C)c2cncc(N3C(=O)c4ccc(Cl)cc4C3(C)C)c2)C1 (single isomer, unassigned) [Example 17, 5-Chloro-3,3-dimethyl-2-[5-[methyl-[(3S or 3R)-1-propylsulfonylpyrrolidin-3-yl]amino]pyridin-3-yl]isoindol-1-one] | – |
| 65 nM | > 30000 nM | CCC(=O)N1CC(Nc2cncc(N3C(=O)c4ccc(Cl)cc4C3C)c2)C1 (stereo not drawn) [Example 33, 5-Chloro-3-methyl-2-[5-[(1-propanoylazetidin-3-yl)amino]pyridin-3-yl]-3H-isoindol-1-one] | – |
| 17 nM | 2800 nM | CC1(C)c2cc(Cl)ccc2C(=O)N1c1cncc(NC2CN(S(C)(=O)=O)C2)c1 [Example 8, 5-Chloro-3,3-dimethyl-2-[5-[(1-methylsulfonylazetidin-3-yl)amino]pyridin-3-yl]isoindol-1-one] | – |
| 1510 nM | > 30000 nM | CC(C)S(=O)(=O)N1CCCC(Nc2cncc(N3C(=O)c4ccc(Cl)cc4C3(C)C)c2)C1 (single isomer, unassigned) [Example 27, 5-Chloro-3,3-dimethyl-2-[5-[[(3S or 3R)-1-propan-2-ylsulfonylpiperidin-3-yl]amino]pyridin-3-yl]isoindol-1-one] | – |
| 2360 nM | > 30000 nM | CC(C)S(=O)(=O)N1CCCC(Nc2cncc(N3C(=O)c4ccc(Cl)cc4C3(C)C)c2)C1 (single isomer, unassigned) [Example 26, 5-Chloro-3,3-dimethyl-2-[5-[[(3R or 3S)-1-propan-2-ylsulfonylpiperidin-3-yl]amino]pyridin-3-yl]isoindol-1-one] | – |
| 1 nM | 233 nM | CCCS(=O)(=O)N1CCC(N(C)c2cncc(N3C(=O)c4ccc(Cl)cc4C3(C)C)c2)C1 (single isomer, unassigned) [Example 18, 5-Chloro-3,3-dimethyl-2-[5-[methyl-[(3R or 3S)-1-propylsulfonylpyrrolidin-3-yl]amino]pyridin-3-yl]isoindol-1-one] | – |
| 215 nM | 41100 nM | CC(=O)N1CC(Nc2cncc(N3CCc4cc(Cl)ccc4C3=O)c2)C1 [Example 32, 2-[5-[(1-Acetylazetidin-3-yl)amino]pyridin-3-yl]-6-chloro-3,4-dihydroisoquinolin-1-one] | – |
| 11 nM | 8240 nM | CC(C)S(=O)(=O)N1CC2(CC(Nc3cncc(N4C(=O)c5ccc(Cl)cc5C4(C)C)c3)C2)C1 [Example 38, 5-Chloro-3,3-dimethyl-2-[5-[(2-propan-2-ylsulfonyl-2-azaspiro[3.3]heptan-6-yl)amino]pyridin-3-yl]isoindol-1-one] | – |
| 0.5 nM | 39 nM | CCS(=O)(=O)N1CC(N(C)c2cncc(N3C(=O)c4ccc(Cl)cc4C3(C)C)c2)C1 [Example 10, 5-Chloro-2-[5-[(1-ethylsulfonylazetidin-3-yl)-methylamino]pyridin-3-yl]-3,3-dimethylisoindol-1-one] | – |
| 61 nM | 15400 nM | CCS(=O)(=O)N1CC(Nc2cncc(N3CCc4cc(Cl)ccc4C3=O)c2)C1 [Example 30, 6-Chloro-2-[5-[(1-ethylsulfonylazetidin-3-yl)amino]pyridin-3-yl]-3,4-dihydroisoquinolin-1-one] | – |
| 1 nM | 732 nM | CC(C)S(=O)(=O)N1CCC(N(C)c2cncc(N3C(=O)c4ccc(Cl)cc4C3(C)C)c2)C1 (single isomer, unassigned) [Example 15, 5-Chloro-3,3-dimethyl-2-[5-[methyl-[(3S or 3R)-1-propan-2-ylsulfonylpyrrolidin-3-yl]amino]pyridin-3-yl]isoindol-1-one] | – |
